Experimental data as given in ChEMBL document CHEMBL1146280, “New competitive inhibitors of cytosolic (NADH-dependent) rabbit muscle glycerophosphate dehydrogenase” (Bioorg Med Chem Lett, 2007).

Columns and labels:
[1] = Inhibition of class II FBA
[2] = species: Oryctolagus cuniculus; experiment: Inhibition of rabbit muscle NADH-dependent cytosolic glycerophosphate dehydrogenase
[3] = Inhibition of class I FBA; set-up: species or system Homo sapiens

Structure (SMILES) | Ki [1] [µM] | Ki [2] [µM] | Ki [3] [µM]
O=C(CCP(=O)(O)O)NO | 145 | 6 | > 500
O=C(COP(=O)(O)O)NO [PHOSPHOGLYCOLOHYDROXAMATE] | 0.01 | 10 | 1
O=C(CC(O)P(=O)(O)O)NO (stereo not drawn) | 418 | 40 | 180
NC(CC(=O)NO)P(=O)(O)O (stereo not drawn) | 3000 | > 500 | 9000
NNC(=O)COP(=O)(O)O [PHOSPHORIC ACID MONOHYDRAZINOCARBONYLMETHYL ESTER] | 0.34 | > 500 | 370
N/C(COP(=O)(O)O)=N/O | 2.3 | 100 | > 1000
